Source: the supplement of paper PMC8882468

These molecules were tested on HCI-010 (organoid from a breast cancer xenograft) (assay: CTG-3D luminescence at 96 h relative to day-0 seeding control (ratio to day 0); higher = more growth / less cytotoxicity; PDxO 3D drug screen (set 2), 96 h, CTG-3D normalised to day-0 seeding control.). Conditions: 12.5 pM; days in culture: 79.

SMILES	CTG-3D luminescence at 96 h
COc1cccc2c1C(=O)c1c(O)c3c(c(O)c1C2=O)C[C@@](O)(C(=O)CO)C[C@@H]3O[C@H]1C[C@H](N)[C@@H](O)[C@H](C)O1 [epirubicin]	1.82
CC(=O)c1c(C)c2cnc(Nc3ccc(N4CCNCC4)cn3)nc2n(C2CCCC2)c1=O [palbociclib]	1.68
O=C(c1cc(Cc2n[nH]c(=O)c3ccccc23)ccc1F)N1CCN(C(=O)C2CC2)CC1 [olaparib]	2.04

Same assay, conditions: 12.5 pM; days in culture: 86

SMILES	CTG-3D luminescence at 96 h
COc1cccc2c1C(=O)c1c(O)c3c(c(O)c1C2=O)C[C@@](O)(C(=O)CO)C[C@@H]3O[C@H]1C[C@H](N)[C@@H](O)[C@H](C)O1 [epirubicin]	1.93
CC(=O)c1c(C)c2cnc(Nc3ccc(N4CCNCC4)cn3)nc2n(C2CCCC2)c1=O [palbociclib]	2.36
O=C(c1cc(Cc2n[nH]c(=O)c3ccccc23)ccc1F)N1CCN(C(=O)C2CC2)CC1 [olaparib]	2.3

Same assay, conditions: 12.5 pM; days in culture: 102

SMILES	CTG-3D luminescence at 96 h
COc1cccc2c1C(=O)c1c(O)c3c(c(O)c1C2=O)C[C@@](O)(C(=O)CO)C[C@@H]3O[C@H]1C[C@H](N)[C@@H](O)[C@H](C)O1 [epirubicin]	1.1
CC(=O)c1c(C)c2cnc(Nc3ccc(N4CCNCC4)cn3)nc2n(C2CCCC2)c1=O [palbociclib]	1.09
O=C(c1cc(Cc2n[nH]c(=O)c3ccccc23)ccc1F)N1CCN(C(=O)C2CC2)CC1 [olaparib]	1.21

Same assay, conditions: 12.5 pM; days in culture: 164

SMILES	CTG-3D luminescence at 96 h
COc1cccc2c1C(=O)c1c(O)c3c(c(O)c1C2=O)C[C@@](O)(C(=O)CO)C[C@@H]3O[C@H]1C[C@H](N)[C@@H](O)[C@H](C)O1 [epirubicin]	1.68
CC(=O)c1c(C)c2cnc(Nc3ccc(N4CCNCC4)cn3)nc2n(C2CCCC2)c1=O [palbociclib]	1.31
O=C(c1cc(Cc2n[nH]c(=O)c3ccccc23)ccc1F)N1CCN(C(=O)C2CC2)CC1 [olaparib]	1.72

Same assay, conditions: 0.00025 µM; days in culture: 79

SMILES	CTG-3D luminescence at 96 h
COc1cccc2c1C(=O)c1c(O)c3c(c(O)c1C2=O)C[C@@](O)(C(=O)CO)C[C@@H]3O[C@H]1C[C@H](N)[C@@H](O)[C@H](C)O1 [epirubicin]	1.96
CC(=O)c1c(C)c2cnc(Nc3ccc(N4CCNCC4)cn3)nc2n(C2CCCC2)c1=O [palbociclib]	1.69
O=C(c1cc(Cc2n[nH]c(=O)c3ccccc23)ccc1F)N1CCN(C(=O)C2CC2)CC1 [olaparib]	1.79

Same assay, conditions: 0.00025 µM; days in culture: 86

SMILES	CTG-3D luminescence at 96 h
COc1cccc2c1C(=O)c1c(O)c3c(c(O)c1C2=O)C[C@@](O)(C(=O)CO)C[C@@H]3O[C@H]1C[C@H](N)[C@@H](O)[C@H](C)O1 [epirubicin]	2.45
CC(=O)c1c(C)c2cnc(Nc3ccc(N4CCNCC4)cn3)nc2n(C2CCCC2)c1=O [palbociclib]	2.42
O=C(c1cc(Cc2n[nH]c(=O)c3ccccc23)ccc1F)N1CCN(C(=O)C2CC2)CC1 [olaparib]	2.5

Same assay, conditions: 0.00025 µM; days in culture: 102

SMILES	CTG-3D luminescence at 96 h
COc1cccc2c1C(=O)c1c(O)c3c(c(O)c1C2=O)C[C@@](O)(C(=O)CO)C[C@@H]3O[C@H]1C[C@H](N)[C@@H](O)[C@H](C)O1 [epirubicin]	1.22
CC(=O)c1c(C)c2cnc(Nc3ccc(N4CCNCC4)cn3)nc2n(C2CCCC2)c1=O [palbociclib]	1.35
O=C(c1cc(Cc2n[nH]c(=O)c3ccccc23)ccc1F)N1CCN(C(=O)C2CC2)CC1 [olaparib]	1.27

Same assay, conditions: 0.00025 µM; days in culture: 164

SMILES	CTG-3D luminescence at 96 h
COc1cccc2c1C(=O)c1c(O)c3c(c(O)c1C2=O)C[C@@](O)(C(=O)CO)C[C@@H]3O[C@H]1C[C@H](N)[C@@H](O)[C@H](C)O1 [epirubicin]	1.75
CC(=O)c1c(C)c2cnc(Nc3ccc(N4CCNCC4)cn3)nc2n(C2CCCC2)c1=O [palbociclib]	1.57
O=C(c1cc(Cc2n[nH]c(=O)c3ccccc23)ccc1F)N1CCN(C(=O)C2CC2)CC1 [olaparib]	1.56

Same assay, conditions: 0.005 µM; days in culture: 79

SMILES	CTG-3D luminescence at 96 h
COc1cccc2c1C(=O)c1c(O)c3c(c(O)c1C2=O)C[C@@](O)(C(=O)CO)C[C@@H]3O[C@H]1C[C@H](N)[C@@H](O)[C@H](C)O1 [epirubicin]	2.1
CC(=O)c1c(C)c2cnc(Nc3ccc(N4CCNCC4)cn3)nc2n(C2CCCC2)c1=O [palbociclib]	1.79
O=C(c1cc(Cc2n[nH]c(=O)c3ccccc23)ccc1F)N1CCN(C(=O)C2CC2)CC1 [olaparib]	2.08

Same assay, conditions: 0.005 µM; days in culture: 86

SMILES	CTG-3D luminescence at 96 h
COc1cccc2c1C(=O)c1c(O)c3c(c(O)c1C2=O)C[C@@](O)(C(=O)CO)C[C@@H]3O[C@H]1C[C@H](N)[C@@H](O)[C@H](C)O1 [epirubicin]	2.56
CC(=O)c1c(C)c2cnc(Nc3ccc(N4CCNCC4)cn3)nc2n(C2CCCC2)c1=O [palbociclib]	2.72
O=C(c1cc(Cc2n[nH]c(=O)c3ccccc23)ccc1F)N1CCN(C(=O)C2CC2)CC1 [olaparib]	2.59

Same assay, conditions: 0.005 µM; days in culture: 102

SMILES	CTG-3D luminescence at 96 h
COc1cccc2c1C(=O)c1c(O)c3c(c(O)c1C2=O)C[C@@](O)(C(=O)CO)C[C@@H]3O[C@H]1C[C@H](N)[C@@H](O)[C@H](C)O1 [epirubicin]	1.01
CC(=O)c1c(C)c2cnc(Nc3ccc(N4CCNCC4)cn3)nc2n(C2CCCC2)c1=O [palbociclib]	1.2
O=C(c1cc(Cc2n[nH]c(=O)c3ccccc23)ccc1F)N1CCN(C(=O)C2CC2)CC1 [olaparib]	1.15

Same assay, conditions: 0.005 µM; days in culture: 164

SMILES	CTG-3D luminescence at 96 h
COc1cccc2c1C(=O)c1c(O)c3c(c(O)c1C2=O)C[C@@](O)(C(=O)CO)C[C@@H]3O[C@H]1C[C@H](N)[C@@H](O)[C@H](C)O1 [epirubicin]	1.67
CC(=O)c1c(C)c2cnc(Nc3ccc(N4CCNCC4)cn3)nc2n(C2CCCC2)c1=O [palbociclib]	1.74
O=C(c1cc(Cc2n[nH]c(=O)c3ccccc23)ccc1F)N1CCN(C(=O)C2CC2)CC1 [olaparib]	1.64

Same assay, conditions: 0.1 µM; days in culture: 79

SMILES	CTG-3D luminescence at 96 h
COc1cccc2c1C(=O)c1c(O)c3c(c(O)c1C2=O)C[C@@](O)(C(=O)CO)C[C@@H]3O[C@H]1C[C@H](N)[C@@H](O)[C@H](C)O1 [epirubicin]	0.453
CC(=O)c1c(C)c2cnc(Nc3ccc(N4CCNCC4)cn3)nc2n(C2CCCC2)c1=O [palbociclib]	1.9
O=C(c1cc(Cc2n[nH]c(=O)c3ccccc23)ccc1F)N1CCN(C(=O)C2CC2)CC1 [olaparib]	2.11

Same assay, conditions: 0.1 µM; days in culture: 86

SMILES	CTG-3D luminescence at 96 h
COc1cccc2c1C(=O)c1c(O)c3c(c(O)c1C2=O)C[C@@](O)(C(=O)CO)C[C@@H]3O[C@H]1C[C@H](N)[C@@H](O)[C@H](C)O1 [epirubicin]	0.972
CC(=O)c1c(C)c2cnc(Nc3ccc(N4CCNCC4)cn3)nc2n(C2CCCC2)c1=O [palbociclib]	2.52
O=C(c1cc(Cc2n[nH]c(=O)c3ccccc23)ccc1F)N1CCN(C(=O)C2CC2)CC1 [olaparib]	2.35

Same assay, conditions: 0.1 µM; days in culture: 102

SMILES	CTG-3D luminescence at 96 h
COc1cccc2c1C(=O)c1c(O)c3c(c(O)c1C2=O)C[C@@](O)(C(=O)CO)C[C@@H]3O[C@H]1C[C@H](N)[C@@H](O)[C@H](C)O1 [epirubicin]	0.19
CC(=O)c1c(C)c2cnc(Nc3ccc(N4CCNCC4)cn3)nc2n(C2CCCC2)c1=O [palbociclib]	1.65
O=C(c1cc(Cc2n[nH]c(=O)c3ccccc23)ccc1F)N1CCN(C(=O)C2CC2)CC1 [olaparib]	1.36

Same assay, conditions: 0.1 µM; days in culture: 164

SMILES	CTG-3D luminescence at 96 h
COc1cccc2c1C(=O)c1c(O)c3c(c(O)c1C2=O)C[C@@](O)(C(=O)CO)C[C@@H]3O[C@H]1C[C@H](N)[C@@H](O)[C@H](C)O1 [epirubicin]	0.67
CC(=O)c1c(C)c2cnc(Nc3ccc(N4CCNCC4)cn3)nc2n(C2CCCC2)c1=O [palbociclib]	1.67
O=C(c1cc(Cc2n[nH]c(=O)c3ccccc23)ccc1F)N1CCN(C(=O)C2CC2)CC1 [olaparib]	1.57
